Data set [1] deals with SHP-1 expression. In words: SHP-1 expression in primary rat hepatocytes (Northern blot). It counts as cell-based. The conditions noted are these: 48 hours; GW4064 0.1-10 μM. On the procedure: (§1) Primary human hepatocytes and rat hepatocytes (1.5×10^6 cells) were cultured on […]-coated six well plates in serum-free Williams' E medium supplemented with 100 nM dexamethasone, 100 U/ml penicillin G, 100 μg/ml streptomycin, and insulin-transferrin-selenium (ITS-G, Life Technologies, Inc., Gaithersburg, Md.). […] Control cultures received vehicle alone. Cells were cultured for a further 48 hours prior to harvest and total RNA isolated using a commercially available reagent (Trizol, Life Technologies Inc., Gaithersburg, Md.) according to the manufacturer's instructions. Total RNA (10 μg) was resolved on a 1% agarose/2.2 M formaldehyde denaturing gel and transferred to a nylon membrane (Hybond N+, Amersham Pharmacia Biotech Inc., Piscataway, N.J.). Blots were hybridized with ^32p-labeled cDNAs corresponding to human SHP-1, human CYP7A (bases 99 to 1564, GenBank M93133), mouse SHP-1 (bases 30 to 783, GenBank L76567), or rat CYP7A (bases 235 to 460, GenBank J05460). The SHP-1 cDNA used in these experiments encodes the full-length human SHP-1 protein (amino acids 1-260) as described in Seol et al. (1996 Science 272:1336), Subsequently, blots were stripped and reprobed with a radiolabeled -actin cDNA (Clontech, Palo Alto, Calif.).

Data set [2] deals with T1, rodent FXR (Mus musculus, UniProt Q60641).
T1 construct: expressed in transfected cells; host or cells: CV-1
T1 sequence (Q60641 1-488): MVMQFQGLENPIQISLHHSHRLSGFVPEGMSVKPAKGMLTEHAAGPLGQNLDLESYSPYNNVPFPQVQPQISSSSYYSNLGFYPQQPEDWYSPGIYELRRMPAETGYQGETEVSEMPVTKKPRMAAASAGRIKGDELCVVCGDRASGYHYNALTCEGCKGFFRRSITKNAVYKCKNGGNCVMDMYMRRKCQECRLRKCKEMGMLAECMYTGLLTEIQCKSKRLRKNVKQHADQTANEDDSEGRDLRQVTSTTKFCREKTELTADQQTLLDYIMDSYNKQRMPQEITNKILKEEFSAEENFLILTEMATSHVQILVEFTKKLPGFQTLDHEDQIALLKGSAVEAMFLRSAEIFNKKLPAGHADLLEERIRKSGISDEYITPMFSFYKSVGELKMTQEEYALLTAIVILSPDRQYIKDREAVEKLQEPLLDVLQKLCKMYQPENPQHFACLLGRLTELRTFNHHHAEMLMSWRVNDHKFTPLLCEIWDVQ
The data set is described as follows: FXR transactivation in transfected CV-1 cells, hsp70 ecdysone receptor response element reporter. It counts as cell-based. From the text:
The full-length coding regions for human LRH-1 (GenBank AB019246) and human SHP-1 (GenBank L76571) were amplified by PCR and cloned into pSG5, creating pSG5-hLRH-1 and pSG5-hSHP-1, respectively. A consensus Kozak sequence was created during amplification. […] Underlined residues are those which have been mutated from the wild-type sequence. […] VP16-nuclear receptor chimeras contained the 80-amino acid herpes virus VP16 transactivation domain linked to the nuclear receptor ligand binding domain in a modified pSG5 expression vector.
Transient transfection of CV-1 cells was performed as described previously (Jones, S. A. et al. 2000. Mol. Endocrinol. 14:27-39). Typically, transfection mixes contained 2-5 ng receptor expression vector, 20 ng reporter construct, and 8 ng p -actin-SPAP. The amount of DNA used in each transfection was adjusted to 80 ng with carrier plasmid (pBluescript, Stratagene, La Jolla, Calif.). Cells were maintained for 24 hours in the presence of drug (added as a 1000× stock in dimethyl sulfoxide) in DMEM/F-12 nutrient mixture containing 10% charcoal-stripped, delipidated calf serum. An aliquot of medium was assayed for SPAP activity and the cells lysed prior to determination of luciferase expression. Luciferase activities were normalized to SPAP. […]

Data set [3] relates to SHP-1 expression. The data set is described as follows: SHP-1 expression in primary human hepatocytes (Northern blot). It counts as cell-based. Particulars: 48 hours; GW4064 0.1-10 μM, chenodeoxycholic acid 1-100 μM. On the procedure: Control cultures received vehicle alone. Cells were cultured for a further 48 hours prior to harvest and total RNA isolated using a commercially available reagent (Trizol, Life Technologies Inc., Gaithersburg, Md.) according to the manufacturer's instructions. Total RNA (10 μg) was resolved on a 1% agarose/2.2 M formaldehyde denaturing gel and transferred to a nylon membrane (Hybond N+, Amersham Pharmacia Biotech Inc., Piscataway, N.J.). Blots were hybridized with ^32p-labeled cDNAs corresponding to human SHP-1, human CYP7A (bases 99 to 1564, GenBank M93133), mouse SHP-1 (bases 30 to 783, GenBank L76567), or rat CYP7A (bases 235 to 460, GenBank J05460). The SHP-1 cDNA used in these experiments encodes the full-length human SHP-1 protein (amino acids 1-260) as described in Seol et al. (1996 Science 272:1336), Subsequently, blots were stripped and reprobed with a radiolabeled -actin cDNA (Clontech, Palo Alto, Calif.).

In data set [4] the test system is human SHP-1 promoter. In words: SHP-1 promoter reporter in HepG2 cells transfected with FXR expression plasmid. It counts as cell-based.
In data set [5] the test system is SHP-1 expression. In words: Liver SHP-1 expression in treated rats. The conditions noted are these: 30 mg/kg by gavage twice a day for 7 days. It counts as in vivo, rat. On the procedure: Direct regulation of SHP-1 by FXR was confirmed in experiments in HepG2 cells transfected with an FXR expression plasmid and reporter plasmids under the control of either the rat or human SHP-1 promoter.
(§2) Male Fisher rats were obtained from Charles River Laboratories Inc. (Raleigh, N.C.) and maintained on a 12 hour light/12 hour dark cycle. Animals were allowed food and chow ad libitum. […] Livers were excised and snap-frozen in liquid nitrogen. Differential gene expression analysis was performed by Curagen Corp. (New Haven, Conn.).

The subject of data set [6] is CYP7A expression. In words: CYP7A expression in primary human hepatocytes (Northern blot). Type of data set: cell-based. The conditions noted are these: 48 hours; GW4064 0.1-10 μM, chenodeoxycholic acid 1-100 μM. On the procedure: as §1
Data set [7] deals with CYP7A expression. The data set is described as follows: Liver CYP7A expression in treated rats. Type of data set: in vivo, rat. The conditions noted are these: 30 mg/kg by gavage twice a day for 7 days. On the procedure: This decrease was still measurable despite the fact that the animals had been maintained on a normal light cycle and sacrificed during the daytime when CYP7A levels are known to be quite low.
as §2

Data set [8] concerns rat SHP-1 promoter. The data set is described as follows: SHP-1 promoter reporter in HepG2 cells transfected with FXR expression plasmid. It counts as cell-based.

Entries after “also recorded” stand apart in the source; their conditions may differ.

The values below come from US20040038862A1, “Identification of new therapeutic targets for modulating bile acid synthesis” (priority 2003, published 2004).

In general, EC50 refers to the concentration at which the effect is half-maximal. The low end stands for a more potent agent, the high end for a less potent agent. Turning to `CC(C)c1onc(-c2c(Cl)cccc2Cl)c1COc1ccc(/C=C/c2cccc(C(=O)O)c2)c(Cl)c1` [GW4064], in data set [1], the “SHP-1 expression in rat hepatocytes” value is recorded as “markedly increased SHP-1 expression in a dose-dependent manner”. A half-maximal effect in data set [2] (EC50) was put at 80 nM. The “SHP-1 expression in human hepatocytes” value in data set [3] is “markedly increased SHP-1 expression in a dose-dependent manner”. In addition, in data set [4], the “reporter activity, human SHP-1 promoter” value is listed as “marked induction of reporter activity”. In addition, in data set [5], the “SHP-1 expression in liver RNA versus vehicle-treated rats” value was “six-fold increase”. For the same compound, in data set [6], the “CYP7A expression in human hepatocytes” value is “decrease CYP7A expression in a dose dependent fashion; also recorded: repressed CYP7A expression at the same concentrations that were required for induction of SHP-1 expression”. Besides, the “CYP7A expression levels versus vehicle treated rats” value in data set [7] is listed as “decrease in CYP7A expression levels”. In data set [8], the “reporter activity, rat SHP-1 promoter” value is given as “marked induction of reporter activity”.
Consider `C[C@H](CCC(=O)O)[C@H]1CC[C@H]2[C@@H]3[C@H](O)C[C@@H]4C[C@H](O)CC[C@]4(C)[C@H]3CC[C@]12C` [chenodeoxycholic acid, reference compound], for which the “SHP-1 expression in human hepatocytes” value in data set [3] is on record as “much less potent than GW4064”. In addition, the “CYP7A expression in human hepatocytes” value in data set [6] is “repressed CYP7A expression at the same concentrations that were required for induction of SHP-1 expression”.
